Assay results as given in PMC9219824, “Antiplasmodial Cyclodecapeptides from Tyrothricin Share a Target with Chloroquine” (Antibiotics, 2022).
Like-named read-outs stand apart in the source and are kept apart here. Square brackets hold non-standard residues; d marks the D form. Peptide text beside a SMILES is read from it. Orn = NCCC[C@H](N)C(=O)O

Legend:
[1] = system: CQS P. falciparum 3D7; assay: microbe, parasite or virus in culture; assay type: cell-based, Plasmodium falciparum
Experimental: (§1) The antimalarial assays were carried out according to the method of Nkhoma et al.. […] On the day of the assay, the parasitemia was determined following observation by light microscopy after Giemsa staining of a thin blood smear from the culture. The cultures at young trophozoite stage were diluted to 2% parasitemia and 2% hematocrit by addition of fresh RPMI medium and uninfected erythrocytes. This culture suspension was distributed in 96-well culture plates at 90 µL/well. […] Peptide solvent and medium (10 µL/well) was used as sterility control and in growth control and 10 μL 1.0 mM GS was used as positive control. Assays were carried out in at least three biological repeats each consisting of three technical repeats to ascertain reproducibility.
(§2) The culture suspension was frozen away at −20 °C until determination of the residual lactate dehydrogenase activity of the parasites by the Malstat assay, as adapted from Gomez et al..
(§3) For the Malstat assay, the plates were transferred to −80 °C for 1 h following overnight storage at −20 °C to ensure that all the suspensions in each well of the 96-well plate were frozen. The plates were then thawed at room temperature. The Malstat reagent consisted of 200 μL Triton X-100, 2 g L-lactic acid (substrate), 0.66 g Tris-HCl buffer and 0.011 g of 3-acetylpyridine adenine dinucleotide (APAD) (coenzyme for parasite lactate dehydrogenase) in 100 mL analytical quality water set to a pH of 9.0 [93]. […] A 15 µL aliquot of the thawed and properly mixed suspension from the assay plates was added to 100 µL of the Malstat reagent, followed by addition of 25 µL of the NBT/PES solution. The reaction mixtures were then incubated at room temperature in the dark for 30 min followed by spectrophotometric measurement of the absorbance of the reduced APAD at 620 nm using a Model 680 Microplate reader from BioRad.
(§4) The data obtained from spectrophotometric measurement of the plates following the lactate dehydrogenase (Malstat) assay were converted to percentage growth inhibition using the data analysis method described by Rautenbach et al.. The background was obtained from control wells in which the parasites were killed with 100 µM GS while total growth was from the wells that were not submitted to peptides. […] The percentage COS-1 cell death (CellTiter Blue™ assay) was similarly calculated from absorbance values.

[2] = system: CQR P. falciparum Dd2; assay: microbe, parasite or virus in culture; assay type: cell-based, Plasmodium falciparum; details: for IC50: read-out: IC50, CQR P. falciparum Dd2; for Resistance Index IC50Dd2/IC503D7: first value of cell; for Resistance Index IC50Dd2/IC50D10: second value of cell
Experimental: as §1, §2, §3, §4

[3] = system: CQI P. falciparum D10; assay: microbe, parasite or virus in culture; assay type: cell-based, Plasmodium falciparum; details: for IC50: 48 h, Malstat, ± SEM
Experimental: The antimalarial assays were carried out according to the method of Nkhoma et al.. Once the cultures reached a parasitemia of 5–15%, they were synchronized four days prior to the day of the assay as described above which allowed the cultures to recover from the stress caused by the D-sorbitol. On the day of the assay, the parasitemia was determined following observation by light microscopy after Giemsa staining of a thin blood smear from the culture. The cultures at young trophozoite stage were diluted to 2% parasitemia and 2% hematocrit by addition of fresh RPMI medium and uninfected erythrocytes. This culture suspension was distributed in 96-well culture plates at 90 µL/well. The peptides and CQ diluted in culture medium lacking albumax II were added to the cultures in triplicate at 10 µL/well to give a total volume of 100 µL/well. Peptide solvent and medium (10 µL/well) was used as sterility control and in growth control and 10 μL 1.0 mM GS was used as positive control. Assays were carried out in at least three biological repeats each consisting of three technical repeats to ascertain reproducibility.
For the activity determination against parasites, plates were incubated at 37 °C for 48 h under an atmosphere of 3% CO2, 4% O2 and 93% N2. The culture suspension was frozen away at −20 °C until determination of the residual lactate dehydrogenase activity of the parasites by the Malstat assay, as adapted from Gomez et al..
For the Malstat assay, the plates were transferred to −80 °C for 1 h following overnight storage at −20 °C to ensure that all the suspensions in each well of the 96-well plate were frozen. The plates were then thawed at room temperature. The Malstat reagent consisted of 200 μL Triton X-100, 2 g L-lactic acid (substrate), 0.66 g Tris-HCl buffer and 0.011 g of 3-acetylpyridine adenine dinucleotide (APAD) (coenzyme for parasite lactate dehydrogenase) in 100 mL analytical quality water set to a pH of 9.0 [93]. The lactate dehydrogenase reaction was initiated by addition of a second solution, NBT/PES solution composed of 1.96 mM nitro blue tetrazolium (NBT) and 0.24 mM phenazine ethosulfate (PES) which was always protected from light. A 15 µL aliquot of the thawed and properly mixed suspension from the assay plates was added to 100 µL of the Malstat reagent, followed by addition of 25 µL of the NBT/PES solution. The reaction mixtures were then incubated at room temperature in the dark for 30 min followed by spectrophotometric measurement of the absorbance of the reduced APAD at 620 nm using a Model 680 Microplate reader from BioRad.
(§5) The data obtained from spectrophotometric measurement of the plates following the lactate dehydrogenase (Malstat) assay were converted to percentage growth inhibition using the data analysis method described by Rautenbach et al.. The background was obtained from control wells in which the parasites were killed with 100 µM GS while total growth was from the wells that were not submitted to peptides. The background for the hemolysis evaluation was from wells in which the uninfected erythrocytes were lysed using 100 µM GS while growth control was from the wells with uninfected erythrocytes that received no peptides. The percentage COS-1 cell death (CellTiter Blue™ assay) was similarly calculated from absorbance values. All the dose–response assay data were evaluated using GraphPad Prism 4.03 (GraphPad Software, San Diego, CA, USA) followed by non-linear regression and sigmoidal curves were fitted (having variable slope and a constant difference of 100 between the top and bottom plateau). Following calculation of the 50% P. falciparum inhibitory concentration (IC50), 50% hemolytic concentration (HC50) and 50% lethal concentration (LC50) for COS-1 cells.

[4] = Toxicity to COS-1 cells, CellTiter Blue viability; assay type: cell-based; details: 24 h, resazurin (CellTiter Blue), read-out: Toxicity LC50, COS Cells
Experimental: COS-1 cells were cultured in DMEM containing 0.9 g/L glucose, 0.12% NaHCO3, 10% fetal calf serum and 1% penicillin–streptomycin at 37 °C and under an atmosphere of 5% CO2 [95]. Twenty hours before the assay, the cells were transferred to 96-well plates at a density of 1.5 × 10^4 cells/well. The peptides from the dilution series were added to each well and incubated for 24 h. The cell viability was measured by adding 20 μL/well resazurin reagent (CellTiter Blue™), followed by four hours incubation at room temperature in the dark and measurement of the absorbance at 560 nm and 600 nm in the BioRad microplate reader.
as §5

[5] = system: human erythrocytes; assay: Hemolytic activity; assay type: cell-based; details: 2% hematocrit, 1 h at 37 °C, ± SEM
Experimental: To determine the hemolytic activity of the peptides, the duplicate 96-well plates with samples added to 90 μL 2% hematocrit per well were incubated for one hour at 37 °C and centrifuged using a swing-out rotor at 200× g for 3 min. The supernatant was diluted 1:8 in analytical quality water in separate 96-well plates and after mixing, the absorbance of the suspension was determined at 405 nm.
as §5

Row | SMILES | IC50 ([1]; Plasmodium falciparum, 3D7, 48 h, read-out: IC50, CQS P. falciparum 3D7) | IC50 ([2]; Plasmodium falciparum, DD2, 48 h) | Resistance Index IC50Dd2/IC503D7 [2] | Resistance Index IC50Dd2/IC50D10 [2] | IC50 ([3]; Plasmodium falciparum, D10) | CC50 [4] | IC50 ([1]; CQS 3D7, 48 h) | IC50 ([2]; 48 h, Malstat, ± SEM) | IC50 [3] | Selectivity Index IC50D10/IC50 (COS cells) ([3]; second value of cell) | HC50, Erythrocytes [5]
1 | CCN(CC)CCCC(C)Nc1ccnc2cc(Cl)ccc12 (stereo not shown) [CQ, chloroquine] | 0.017 ± 0.005 µM | 0.277 ± 0.018 µM | 16 | 7 | 0.04 ± 0.003 µM | – | – | – | – | – | –
2 | CC(C)C[C@@H]1NC(=O)[C@H](CCCN)NC(=O)[C@H](C(C)C)NC(=O)[C@@H]2CCCN2C(=O)[C@@H](Cc2ccccc2)NC(=O)[C@H](CC(C)C)NC(=O)[C@H](CCCN)NC(=O)[C@H](C(C)C)NC(=O)[C@@H]2CCCN2C(=O)[C@@H](Cc2ccccc2)NC1=O [GS, gramicidin S, reference compound] (cyclo(V[Orn]L[dF]PV[Orn]L[dF]P)) | – | – | 1.3; 1.3 | 1.3; 1.3 | – | 9 µM | 1.45 ± 0.151 µM | 1.86 ± 0.16 µM | 1.4 ± 0.086 µM | 6 | 6.2 ± 0.4 (9) μM
